Reference: patent US20080119530A1, “Method for treatment and prevention of ultraviolet light induced skin pathologies” (priority 2006, published 2008)

Assays:
Erbb2 = Erbb2 expression in keratinocytes (immunoblot); format: cell-based, mouse; conditions: cultured keratinocytes, AG825
Excerpt: For some experiments, the epidermis was separated from the skin by the heat shock method before homogenization. Keratinocytes were lysed in the same buffer. Membranes were immunoblotted with antibodies recognizing Erbb2, phospho-Erbb2 (Tyr^1248), EGFR, phospho-EGFR (Tyr^992), phospho-EGFR (Tyr^1173), phosphotyrosine, and Tall (Calbiochem, San Diego, Calif.). Binding of horseradish peroxidase-conjugated secondary antibodies (Cell Signaling, Beverly, Mass.) was visualized using chemiluminescent reagents (Pierce, Rockford, Ill.) and autoradiography. Densitometry was performed using IDScan software (Scanalytics, Fairfax, Va.).
Cell culture. […] Keratinocytes were transfected with Erbb2-targeted siRNA (32), Stealth RNAi Negative Control LO GC (Invitrogen, Carlsbad, Calif.), Cy3-conjugated Label IT RNAi Delivery Control (Mirus, Madison, Wis.) or sham transfection with TransIT-siQUEST Transfection Reagent (Mirus, Madison, Wis.). Plasmids with Cdc25a (Hassepass et al. 2003a) and EGFP (enhanced green fluorescent protein) cDNA were cotransfected with Lipofectamine Transfection Reagent (Invitrogen, Carlsbad, Calif.). Transfection efficiency was quantified by determining the proportion of the cells that incorporated the fluorescent Cy3-conjugated siRNA or GFP one day post-transfection. […]

Erbb3 = experiment: UV-induced phosphorylation of Erbb3; format: cell-based, mouse
Excerpt: Several methods were developed to regulate Erbb2 expression and activity both in vitro and in vivo.

skin = experiment: TUNEL analysis of apoptotic basal cells in UV-exposed skin; set-up: species or system mouse; conditions: 24 h after UV, in vivo
Procedure: Microscopy. Hematoxylin and eosin staining was performed on paraffin-embedded sections following standard protocols. Following antigen retrieval, paraffin-embedded sections were incubated with antibodies to keratin 1, keratin 6, filaggrin (all from Covance, Princeton, N.J.), or […] (R&D Systems, Minneapolis, Minn.), Alexa Fluor 488-conjugated secondary antibody (Molecular Probes), and 4′,6-diamidino-2-phenylindole (DAPI; Vector Laboratories, Burlingame, Calif.). Apoptotic cells were identified using terminal deoxynucleotidyl transferase-mediated dUTP nick end labeling (TUNEL; Promega, Madison, Wis.).
Therefore, the effect of inhibition of Erbb2 on apoptotic cell death was examined in vivo by TUNEL. The percentage of TUNEL-positive basal cells peaked at 18% in vehicle-treated skin at 24 h after UV.
It has been discovered that Erbb2 modulates the expression of genes important in both proliferation and apoptosis following UV exposure in vivo (Example 9). Accordingly, the influence of Erbb2 on both apoptosis and cell proliferation was assessed in order to determine the mechanisms of Erbb2's effect on hyperplasia in the skin after UV irradiation. Erbb2 suppresses UV-induced apoptosis in vitro, although the effect was slight (32). […]

keratin 5, loricrin = experiment: Differentiation markers in UV-exposed skin; format: in vivo, mouse; conditions: inhibition prior to UV irradiation

Compound: COc1cc(/C=C(\C#N)C(N)=O)cc(CSc2nc3ccccc3s2)c1O [AG825]
- expression levels of Erbb2 (Erbb2): without altering
- UV-induced phosphorylation of Erbb3-Tyr1289 (Erbb3): blocked
- apoptotic cell death (TUNEL-positive basal cells) (skin): did not increase
- localization or expression of early (keratin 5) or late (loricrin) markers of differentiation (keratin 5, loricrin): did not alter
